Assay results: patent publication US20230384333A1 (priority 2020, published 2023)
Where “and” joins values, the source holds several entries; their conditions need not be identical. Equal values may be shown once. Entries after “also recorded” stand apart in the source; their conditions may differ. Where a name gives a salt, the structure may show the parent alone.

Assays:
psychLight2 [1] = assay: PSYLI2 high-content imaging, agonist mode; type: cell-based, human; set-up: dose or concentration left out as unconfirmed
psychLight1 [2] = target: T1, psychLight1 (Homo sapiens, UniProt P28223, E264Q/I181A); assay: cell-based; type: cell-based; set-up: fluorescence intensity change, confocal with psychLight1: dose or concentration left out as unconfirmed; conditions: n=3
T1 sequence (P28223 whole entry I181A/E264Q, looked up): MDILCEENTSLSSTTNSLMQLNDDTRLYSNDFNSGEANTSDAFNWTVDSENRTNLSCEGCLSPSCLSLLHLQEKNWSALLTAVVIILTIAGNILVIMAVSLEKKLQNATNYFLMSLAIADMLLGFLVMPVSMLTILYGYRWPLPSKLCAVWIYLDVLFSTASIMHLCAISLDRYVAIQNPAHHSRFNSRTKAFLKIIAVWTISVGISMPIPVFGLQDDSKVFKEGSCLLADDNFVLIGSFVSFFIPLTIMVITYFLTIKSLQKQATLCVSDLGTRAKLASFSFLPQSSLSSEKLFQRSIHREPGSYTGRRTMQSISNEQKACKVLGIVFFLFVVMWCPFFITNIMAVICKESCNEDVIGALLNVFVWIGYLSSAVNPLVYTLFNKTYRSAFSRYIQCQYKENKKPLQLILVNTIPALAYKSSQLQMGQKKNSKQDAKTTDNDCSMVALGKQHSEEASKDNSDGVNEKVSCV
Method: HEK293T cells were grown in DMEM, supplemented with fetal bovine serum (FBS) and penicillin-streptomycin. Cells were trans-fected with Effectene according to the manufacturer's instructions. Prior to imaging, cells were washed with Hank's Balanced Salt Solution (HBSS) supplemented with 2 mM MgCl2 and 2 mM CaCl2). All images were collected in HBSS containing Mg^2+ and Ca^2+.
HEK293T cells were plated and transfected concurrently 24 h prior to each experiment using the QIAGEN Effectene Transfection
Dose-response experiments were performed using an Automate Perfusion System. Cells (HEK293T) were grown on 12 mm cover-slips and transfected with psychLight1. The coverslips were then placed into a coverslip holder and washed with 5 mL of HBSS containing 2 mM MgCl2 and 2 mM CaCl2). Cells were perfused first with 5 mL of 0.1% DMSO, then drugs in ascending concentrations from 1 pM to […] were added, with the concentration of DMSO being held constant at 0.10%. […] For the competition studies described in FIG. 19, HEK293T cells were prepared as described above; however, the cells were first exposed to 5 mL of 0.2% DMSO. […] Analysis was performed by taking 3 ROIs on the cell membrane using ImageJ and calculating the mean intensity for each ROI across the time-points. Finally, the DF/F was calculated using the average of the baseline (0.1 or 0.2% DMSO) and the average intensity between each dosage over the average of the baseline.

psychLight = assay: Schild regression analysis in PSYLI2 cells; type: cell-based, human
Method: During imaging, […] of imaging media were added to each well of the assay plate. Wells were then imaged on a Lecia DMi8 using Leica Application Suite X (V3.6.0.20104) at 40×(N.A.=0.6) with 5 regions of interest (ROI) taken per well using the default 5 ROI pattern for each well with no bias to location and no overlap of the ROIs (exposure=350 ms, LED power=80%). Next, […] from the treatment plate was transferred to the assay plate for a final 1:1000 dilution of drug. All final drug treatments contained 0.1% DMSO. After 5 min of incubation, the same sites were re-imaged using the same settings. The data analysis method was the same as in agonist and antagonist mode.

psychLight1 [3] = target: T1, psychLight1; type: cell-based
C57BL/6J mice [4] = assay: Locomotion assay; type: in vivo, mouse; conditions: i.p., multiple doses
Method: (§1) The HTR assay was performed as described previously using both male and female C57BL/6J mice (2 male and 2 female=4 total per treatment). The mice were obtained from The Jackson Laboratory (Sacramento, C.A.) and were approximately 8-weeks old at the time of the experiments. Compounds were administered (5 mL/kg, i.p.) using 0.9% saline as the vehicle. After injection, animals were placed into an empty cage (8″×13″×5″) and HTRs were videotaped, scored later by two blinded observers, and the results were averaged (interpersonnel kappas, Pearson correlation coefficient>0.91). Locomotion was assessed using AnyMaze automated tracking software.

psychLight2 [5] = type: cell-based, human
Method: Compounds unlikely to bind to the sensor should produce minimal to no response in either agonist or antagonist mode. Therefore, a ligand score was calculated as: […]

[6] = test system: GPCR-based sensors (dopamine, adrenergic, opioid, and serotonin receptors); type: cell-based; conditions: 10 μM AAZ-A-154, agonist and antagonist mode
C57BL/6J mice [7] = assay: Head-twitch response (HTR) assay; type: in vivo, mouse; conditions: i.p., multiple doses
Method: as §1

[8] = test system: embryonic rat cortical neurons; assay: Dendritogenesis (Sholl analysis) in cultured cortical neurons; type: cell-based
Method: For the dendritogenesis experiments conducted using cultured E18 cortical neurons, timed-pregnant Sprague Dawley rats were obtained from Charles River Laboratories (Wilmington, MA). Full culturing, staining, and analysis details were performed as previously described.

psychLight2 [9] = assay: PSYLI2 high-content imaging, agonist mode; type: cell-based, human; conditions: 10 μM compound, hit limit 1 SD from vehicle
Method: (§2) High-Content Imaging Experiments. Glass bottom 96-well plates (P96-1.5H-N, Cellvis) were coated with 50 μg/mL of poly-D-lysine (Sigma, P6407-5MG) and 10 μg/mL laminin (Sigma, L2020) overnight in an incubator (37° C., 5% CO2). […] Immediately prior to an experiment, stock solutions of drugs in DMSO (10 mM) were first diluted 1:100 in imaging media distributed across an empty 96-well plate (treatment plate) in triplicates following a randomized plate map. […] Cells grown in a separate 96-well plate (assay plate) were gently washed (3×) with imaging media, and the wells were filled with an appropriate volume of imaging media for the respective experiment (vide infra).
(§3) For agonist mode, […] of imaging media was added to each well of the assay plate. Wells were then imaged on a Lecia DMi8 using Leica Application Suite X (V3.6.0.20104) at 40×(N.A.=0.6) with 5 regions of interest (ROI) taken per well using the default 5 ROI pattern for each well with no bias to location and no overlap of the ROIs (exposure=350 ms, LED power=80%). Next, 20 μL from the treatment plate was transferred to the assay plate for a total 1:1000 dilution of drug (10 μM drug, 0.1% DMSO). […] All final concentrations of drugs were 10 μM (0.1% DMSO) in agonist mode unless stated otherwise. After 5 min of incubation, the same sites were re-imaged using the same settings.
Once imaging was complete, the images were exported, put into a stack, and analyzed using ImageJ Fiji (ver. 1.51v) by using the rectangle function to draw an ROI around the cell membrane (one cell per image) on both the pre- and posttreatment images. ROI sizes within each plate were kept the same and saved to the ROI manager in ImageJ (ctrl+T). Images were then measured using the “multi measure” function in the ROI manager. Measurements were saved and exported. Analysis of the data was done by taking the average of each individual well's ROIs before and after drugs were added. Then the ΔF/F values for each well were calculated using the following equation: […]
as §2, with “Glass” for “High-Content Imaging Experiments. Glass”, “50 µg/mL” for “50 μg/mL”, “10 pg/mL of” for “10 μg/mL”, “were” for “were first”, “in triplicate” for “in triplicates”, “washed 3×” for “washed (3×)”
as §3, with “agonist mode experiments,” for “agonist mode,”, “media were” for “media was”, “20 pL” for “20 μL”, “plate containing” for “plate for”, “a” for “a total”, “(10 pM as the final concentration in” for “(10 μM drug,”
Once imaging was complete, the images were exported, and analyzed using self-written MATLAB script. Script will be deposit on to Github. In short, segmentation was performed on individual images and a mask highlighting the membrane of the HEK293T cells was generated. Pixel intensities were obtained from the mask-highlighted area and exported into Excel. The ΔF/F values for each well were calculated using the following equation: […]

C57BL/6J mice [10] = assay: Forced swim test (FST); type: in vivo, mouse
VMAT2-HET mice = assay: Sucrose preference (anhedonia) test; type: in vivo, mouse
Method: Adult male and female wild-type (WT) and VMAT2 heterozygous (VMAT2-HET) mice were used for these experiments, and they were housed in a humidity- and temperature-controlled room on a 14:10 h light:dark cycle. Mice were housed individually 48 h prior to the experiment with ad libitum access to chow and water. For each day's experiment, bottles were prepared with water or a 1% sucrose solution and these were weighed just prior to the test. Two h prior to the beginning of the dark cycle, the home-cage water bottle was removed. One h after onset of the dark cycle, a pair of bottles was placed into the home-cage. The mouse was given 2 h to drink, after which the bottles were removed and weighed immediately. Approximately 1 h later, the home-cage water bottle was returned. […] Once criterion was achieved, the mouse was presented with the water-sucrose (W-S) pairing. The next day (day 1), mice were administered an acute injection of AAZ-A-154 (15 mg/kg, i.p.) and 5 min later were given the W-S pairing (i.e., day 1). Subsequent W-S pairings were presented on days 2 and 4, and then at 4-day intervals. Preference for the sucrose bottle was calculated as the volume of sucrose consumed minus the volume of water consumed, divided by the total volume of liquid consumed. Preference scores approaching “0” indicated no preference for sucrose or water, whereas positive scores signified a preference for sucrose and negative scores denoted a preference for water.

[11] = Plate reader screening for compound fluorescence (cell-free); type: physicochemical; conditions: 10 μM, excitation 465 nm, emission 518 nm
psychLight2 [12] = type: cell-based, mouse
[13] = test system: 5-HT levels reported by psychLight2 in DRN, BNST, BLA, OFC; type: in vivo, mouse; conditions: 10 mg/kg, 30 mins prior to imaging
[14] = test system: psychLight2 response to electrically evoked 5-HT release; set-up: species or system mouse; conditions: 50 mM escitalopram as printed

SMILES: COc1ccc2c(CCN(C)C)c[nH]c2c1 [6-MeO, 6-methoxy-N,N-dimethyltrypta-mine]
- fluorescence intensity change, high content imager with psychLight2 (psychLight2 [1]): −3.0±2.7%
- fluorescence intensity change, confocal with psychLight1 (psychLight1 [2]): −1.1±4.6%
- Schild regression (pA2) outcome (psychLight): significantly less potent
- binding shown by competing off 5-HT (psychLight1 [3]): capable of binding to the receptor despite the fact that they lack efficacy; also recorded: capable of binding to the receptor despite lacking efficacy; also recorded: can compete off 5-HT resulting in a reduction in psychLight fluorescence

SMILES: COc1ccc2c(ccn2C[C@@H](C)N(C)C)c1.O=C(O)/C=C/C(=O)O [AAZ-A-154]
- locomotion (C57BL/6J mice [4]): a high dose of the compound did decrease locomotion; also recorded: a high dose of AAZ-A-154 decreased locomotion; also recorded: only decreases locomotion at a very high dose (100 mg/kg)
- ligand score (psychLight2 [5]): favorable ligand score
- selectivity across receptor-based sensors [6]: high selectivity for 5-HT2 receptors
- head-twitch response (HTR) (C57BL/6J mice [7]): did not produce any head-twitches, even up to doses as high as 100 mg/kg; also recorded: failed to produce any head-twitches, even up to doses as high as 100 mg/kg
- dendritic arbor complexity (Sholl analysis) [8]: increased dendritic arbor complexity; also recorded: increases dendritic arbor complexity to a comparable extent as the fast-acting antidepressant ketamine
- effect on dendritic growth in presence of ketanserin [8]: abrogated by the 5-HT2A antagonist ketanserin; also recorded: abolished by the 5-HT2R antagonist ketanserin
- Schild regression (pA2) outcome (psychLight): psychLight competitive antagonist
- screen outcome in agonist mode (psychLight2 [9]): decreased the intrinsic fluorescence of psychLight
- immobility in the forced swim test (C57BL/6J mice [10]; 20 mg/kg i.p.): decreased immobility
- time course of antidepressant-like effects in FST (C57BL/6J mice [10]; single administration 20 mg/kg, tested 30 min and 1 week later): both rapid (30 min) and long-lasting (1 week) antidepressant-like effects
- sucrose preference of WT animals (VMAT2-HET mice; 15 mg/kg i.p.): had no effect on WT animals; also recorded: did not modify sucrose preference in the WT animals
- persistence of anti-anhedonic effect (VMAT2-HET mice; VMAT2-HET mice, single injection 15 mg/kg, listed as AAZ, 15 mg/kg): at least 12 days
- duration of beneficial behavioral effects (VMAT2-HET mice; rodents, single administration): > 1 week and > 2 week
- sucrose preference of VMAT2-HET mice after dosing (VMAT2-HET mice; single injection 15 mg/kg i.p.): sucrose preference that was indistinguishable from WT controls

SMILES: CCN(CC)C(=O)[C@@H]1C=C2c3cccc4[nH]c(Br)c(c34)C[C@H]2N(C)C1 [BOL-148, 2-bromo-lysergic acid di-ethylamide]
- origin of fluorescence signal, cell-free vs PSYLI2 cells [11]: due to the inherent fluorescence of these compounds, and not due to activation of the sensor
- screen outcome in agonist mode (psychLight2 [9]): producing positive signals; also recorded: produced unexpected fluorescence signals

SMILES: CP(C)C.F[P-](F)(F)(F)(F)F.F[P-](F)(F)(F)(F)F.NCCc1c[nH]c2ccc(O)cc12.[Ru+2].c1ccc(-c2ccccn2)nc1.c1ccc(-c2ccccn2)nc1 [RuBi-5-HT]
- ΔpL2/tdT (psychLight2 to tdTomato ratio vs baseline) (psychLight2 [12]): 111.2%±0.7%

SMILES: CN(C)CCC[C@@]1(c2ccc(F)cc2)OCc2cc(C#N)ccc21 [escitalopram, escitalopram oxalate]
- effect on 5-HT dynamics following foot shock [13]: mitigated the reduction in 5-HT levels observed following foot shock; also recorded: delayed the return of elevated 5-HT levels to baseline
- ΔF/F of psychLight2 response to electrical stimuli [14]: 18.4%±4.3%
